# Reference: patent US7763626B2, “Compositions and method for enhancing the therapeutic activity of opiods in treatment of pain” (Trustees of Dartmouth College, priority 2004, dated 2010)
# Columns and labels:
# Format in all cases: in vivo, rat
# Male Sprague-Dawley rats [1] = assay: Mechanical allodynia (von Frey filaments), morphine withdrawal
# Procedure: (§1) Male Sprague-Dawley rats (175-200 grams, Harlan, Indianapolis, Ind.) were divided into two groups (n=8 per group). Rats received subcutaneous injections of either saline or morphine (10 mg/kg; Sigma, St. Louis, Mo.) twice daily at 0800 to 0900 and 1600-1700 hour for 5 days in order to induce opioid tolerance. Chronic morphine withdrawal-induced hyperalgesia and allodynia were assessed in the animals 16 hours after the last injection of morphine. Following the recording of morphine withdrawal-induced hyperalgesia and allodynia, animals were treated with morphine (5 microgram) acutely via lumbar intrathecal injection to study the expression of morphine tolerance. Acute analgesic activity or intrathecal morphine in morphine-tolerant and chronic aline-treated rats were evaluated by mechanical (Analgesy-Meter) and thermal (tail-flick) test paradigms. Behaviors recorded prior to the acute administration of intrathecal morphine served as the basal latency measures.
# (§2) With an understanding of the effects of morphine alone, separate groups of rats (n=8) received with saline or morphine (10 mg/kg subcutaneously, twice daily for 5 days) and also received once daily injections (at 1100 to 1200 hour) of propentofylline (1 and 10 micrograms) or saline via direct lumbar puncture during the induction of morphine tolerance. Again, chronic morphine withdrawal-induced hyperalgesia and allodynia were assessed in the animals 16 hours after the last subcutaneous morphine injection. Following the recording of morphine withdrawal-induced hyperalgesia and allodynia, animals were treated with morphine (5 micrograms) acutely via lumbar puncture to study the expression of morphine tolerance. As before, the acute analgesic activity of intrathecal morphine in morphine-tolerant and saline-injected rats was evaluated by mechanical (Analgesy-Meter) and thermal (tail-flick) test paradigms. Behavior recorded prior to the acute administration of intrathecal morphine served as the basal latency.
# Mechanical sensitivity was measured as the frequency of foot withdrawals elicited by a defined mechanical stimulus. Each rat, under unrestrained conditions, was placed beneath an inverted, ventilated Plexiglas cage upon an elevated aluminum screen surface with 1 cm mesh openings. Animals had been previously acclimated to the environment and the experimenter.
# (§3) In blinded testing, rats were subjected to sequential series of 10 tactile stimulations to the dorsal surface of the ipsilateral hindpaw using […] von Frey filaments (Stoelting Co., WoodDale, Ill.) sequentially. The number of foot withdrawals to this normally non-noxious stimulus determined mechanical allodynia. Mechanical sensitivity was assessed by recording the total number of responses elicited during three successive trials separated by at least 10 minutes. The pressure required to elicit paw withdrawal, the paw pressure threshold was determined.
# Male Sprague-Dawley rats [2] = assay: Morphine tolerance model, acute intrathecal morphine evaluated by thermal and mechanical test paradigms
# Procedure: as §1
# as §2, with “Following the recording of morphine withdrawal-induced hyperalgesia and allodynia, animals were treated with morphine (5 micrograms) acutely via lumbar puncture to study the expression of morphine tolerance.” left out
# as §3
# Thermal nociceptive thresholds were evaluated by the hot water tail-flick test that has been described previously (Bian, D. et al. 1999. Brain Res. 831:55-63). […] Again, the total number of responses elicited during three successive trials separated by at least 10 minutes was recorded and then expressed as the % maximal possible effect. […]
# GFAP mRNA = assay: Real-time PCR of GFAP mRNA at L5 lumbar spinal cord
# Procedure: Total RNA was treated with DNase I (Ambion, Austin, Tex.) to remove DNA contamination before cDNA synthesis. The reverse transcription (RT) was carried out in a 100 μl total reaction volume containing RT buffer, dNTPs, multiscribe reverse transcriptase, RNase-free water and 10 μg of DNase-treated total RNA. The RT reaction was carried out at 25° C. for 10 minutes, 37° C. for 120 minutes, and 95° C. for 5 minutes. Real-time PCR analysis was performed using gene-specific primers and probes that were designed and blasted against GENBANK to confirm their species and gene specificity. […] The real-time PCR reactions were carried out using Platinum Taq DNA polymerase, 20 mM Tris HCl (pH 8.4), 50 mM KCl, 3 mM MgCl2, 200 μM dGTP, dCTP, and dATP, 400 μM of dUTP and 1 U uracyl DNA glycosylase (UDG), 900 nM forward and reverse primers, 300 nM TaqMan probe, and 10-fold dilution of cDNA (50 ng) from the RT step. Primers and probes for glyceraldehyde-3-phosphate (GADPH), GFAP and Mac-1 were obtained form Applied Biosystems (LaJolla, Calif.). The relative standard curves generated by plotting the threshold value versus the log of the amount of total cDNA added to the reaction (1-10000 pg) were used to compare the relative amount of target genes from control and chronic morphine-treated animals.
# IL-1β protein = assay: Cytokine protein estimation by ELISA at L5 spinal cord; conditions: propentofylline 10 micrograms intrathecally for 5 days during induction of morphine tolerance
# Procedure: (§4) Quantitative determination of IL-1β, TNF-α and IL-6 protein was performed on the L5 spinal cord of the rats. […] Briefly, weighed sections of L5 spinal cord were homogenized in a homogenization buffer consisting of a protease inhibitor using the a Power Gen 125 tissue tearer (Fisher Scientific, Suwanee, Ga.). Samples were spun at 20,000×g for 30 minutes at 4° C. Supernatant was aliquoted and stored at −80° C. for future protein quantification. IL-1β and TNF-α (R&D Systems, Minneapolis, Minn.) and IL-6 (Biosource, Camarillo, Calif.) protein concentrations were determined utilizing the quantitative sandwich enzyme immunoassay.
# IL-6 protein = assay: as above; conditions: propentofylline 10 micrograms intrathecally for 5 days during induction of morphine tolerance
# Procedure: as §4
# TNF-α protein = assay: as above; conditions: propentofylline 10 micrograms intrathecally for 5 days during induction of morphine tolerance
# Procedure: as §4
# [3] = propentofylline 10 micrograms intrathecally for 5 days
smiles,measurement,setting,value
CCCn1cnc2c1c(=O)n(CCCCC(C)=O)c(=O)n2C [propentofylline],morphine withdrawal-induced mechanical allodynia,"Male Sprague-Dawley rats [1]; 16 hours after last morphine injection (10 mg/kg s.c. twice daily 5 days), propentofylline 1 and 10 micrograms intrathecally for 5 days during induction of tolerance",significantly attenuated
same,Mechanical allodynia (2 grams),"Male Sprague-Dawley rats [1]; number of foot withdrawals, 2 grams von Frey filament, morphine 10 mg/kg s.c. twice daily 5 days and/or propentofylline 10 micrograms intrathecally",0
same,Mechanical allodynia (12 grams),"Male Sprague-Dawley rats [1]; number of foot withdrawals, 12 grams von Frey filament, morphine 10 mg/kg s.c. twice daily 5 days and/or propentofylline 10 micrograms intrathecally",0
same,expression of spinal nociceptive tolerance to intrathecal morphine (5 micrograms),"Male Sprague-Dawley rats [2]; propentofylline 1 and 10 micrograms intrathecally for 5 days during induction of morphine tolerance, thermal and mechanical test paradigms",significantly attenuated
same,anti-nociceptive activity of acute intrathecal morphine (5 micrograms) in chronic saline-treated rats,Male Sprague-Dawley rats [2]; [3],no effect
same,nociceptive threshold in saline-treated rats,Male Sprague-Dawley rats [2]; [3],no effect
same,GFAP mRNA levels at the L5 lumbar spinal cord,"GFAP mRNA; compared to saline-treated controls, morphine 10 mg/kg twice daily 5 days, or propentofylline 10 micrograms intrathecally 5 days in saline-treated rats",no effect
same,chronic morphine-induced upregulation of GFAP,GFAP mRNA; propentofylline during the induction phase of morphine tolerance,significantly attenuated
same,morphine-induced IL-1β protein levels,IL-1β protein,significantly attenuated
same,morphine-induced IL-6 protein levels,IL-6 protein,significantly attenuated
same,morphine-induced TNF-α protein levels,TNF-α protein,significantly attenuated
